Results published in patent US20130337564A1, “Treatment of Pluripotent Cells” (Janssen Biotech, Inc., priority 2012, published 2013).
Where “and” joins values, the source holds several entries; their conditions need not be identical. Equal entries are not always repeated.

What was measured:
Assay type in all cases: cell-based
[1] = test system: cells expressing pluripotency markers derived from human embryonic stem cells; assay: MTS viability (toxicity) assay of cells expressing pluripotency markers; set-up: Raw data (duplicate), first replicate / Average: unit not given here; details: for Raw data (duplicate), first replicate / Raw data (duplicate), second replicate: MTS viability assay raw reading; for Raw data (duplicate), first replicate: replicate 1; for Raw data (duplicate), second replicate: replicate 2; for viability at 10 µM: Homo sapiens, Embryonic stem cell, viability of cells expressing pluripotency markers, relative to control; for Average: average of duplicate MTS raw readings; for Average of raw data (duplicate), optical density at 490 nm: MTS on day 4
Outline: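 Cells expressing pluripotency markers, derived from human embryonic stem cells, were plated at 20,000 cells per well in 96-well clear-bottom plates and cultured overnight. Test compounds were applied in assay medium on days 1 and 2, and compound-free medium on days 3 and 4. On day 4, MTS was added and optical density at 490 nm was read in duplicate.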

[2] = test system: Sox17 expression in human embryonic stem cells (H9 line); assay: High content screening assay: Sox17 protein expression (differentiation); details: for fold induction at 10 µM: Homo sapiens, Embryonic stem cell, 10 μM test compound with 100 ng/ml activin A on days 1-2, H9, total intensity by IN Cell Analyzer, strong and moderate hits, read-out: SOX17 Expression, Fold over Wnt 3a/AA control
Outline: (§1)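 H9 hESCs on MATRIGEL treated days 1-2 with 10 μM compound in DMEM:F12, 0.5% FCS, 100 ng/ml activin A; days 3-4 with 2% FCS plus activin A without compound. Fixed cells immunostained for Sox17 or HNF-3beta with Draq5 nuclear counterstain. Cell number and staining intensity quantified by high-content imaging, 12 fields/well.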

[3] = test system: HNF-3beta expression in human embryonic stem cells (H9 line); assay: High content screening assay: HNF-3beta protein expression (differentiation); details: for fold induction at 10 µM: Homo sapiens, Embryonic stem cell, 10 μM test compound with 100 ng/ml activin A on days 1-2, H9, total intensity by IN Cell Analyzer, strong and moderate hits, read-out: HNF3β Expression, Fold over Wnt 3a/AA control
Outline: as §1

[4] = total intensity normalised to Wnt 3a/AA control

Compound | Raw data (duplicate), first replicate [1] | Raw data (duplicate), second replicate [1] | SOX-17 Expression Total Intensity [2] | SOX-17 Expression Fold over Wnt 3a/AA control [2, 4] [fold] | HNF-3b Expression Total Intensity [3] | HNF-3b Expression Fold over Wnt 3a/AA control [3, 4] [fold] | viability at 10 µM [1] [%] | Average [1] | fold induction at 10 µM [2] | fold induction at 10 µM [3] | Average of raw data (duplicate), optical density at 490 nm ([1]; cmpd conc 2.5 μM) | Average of raw data (duplicate), optical density at 490 nm ([1]; cmpd conc 5 μM) | Average of raw data (duplicate), optical density at 490 nm ([1]; cmpd conc 10 μM)
O=C1NC(=O)C2=C1c1cn(c3ncccc13)CCOCCOCCn1cc2c2cccnc21 [Compound 180, 6,7,9,10,12,13-Hexahydro-20H-5,23:14,19-di(metheno)dipyrido[2,3-h:3′,2′-n]pyrrolo[3,4-k][1,4,7,16]dioxadiazacyclooctadecine-20,22(21H)-dione] | 0.141 and 0.611 | 0.128 and 0.628 | 0 | 0.0000 | 101114 | 0.0037 |  |  |  |  |  |  | 
O=C1NC(=O)C(c2cn(CCCO)c3ncccc23)=C1c1cn(CCCO)cn1 [Compound 182, 3-[1-(3-Hydroxypropyl)-1H-imidazol-4-yl]-4-[1-(3-hydroxypropyl)-1H-pyrrolo[2,3-b]pyridin-3-yl]-1H-pyrrole-2,5-dione] | 0.802 | 0.801 | 0 |  | 8880858 |  | 100 | 0.802 |  |  |  |  | 
O=C1NC(=O)C(c2cn(CCCO)c3ncccc23)=C1c1cn(CCO)cn1 [Compound 183, 3-[1-(2-Hydroxyethyl)-1H-imidazol-4-yl]-4-[1-(3-hydroxypropyl)-1H-pyrrolo[2,3-b]pyridin-3-yl]-1H-pyrrole-2,5-dione] | 0.792 | 0.572 | 48154 |  | 170177 |  | 82.6 | 0.682 |  |  |  |  | 
O=C1NC(=O)C(c2cn(CCCO)c3ncccc23)=C1c1ccn(CCCO)n1 [Compound 185, 3-[1-(3-Hydroxypropyl)-1H-pyrazol-3-yl]-4-[1-(3-hydroxypropyl)-1H-pyrrolo[2,3-b]pyridin-3-yl]-1H-pyrrole-2,5-dione] | 0.830 | 0.807 |  |  |  |  | 104 | 0.818 | 0.889 | 0.865 |  |  | 
CN(CCO)CCCn1nc(C2=C(c3cn(-c4cccnc4)c4ccccc34)C(=O)NC2=O)c2ccccc21 [Compound 198, 3-(1-{3-[(2-Hydroxyethyl)(methyl)amino]propyl}-1H-indazol-3-yl)-4-(1-pyridin-3-yl-1H-indol-3-yl)-1H-pyrrole-2,5-dione] | 0.856 | 0.905 | 20866647 |  | 61161468 |  | 112 | 0.881 |  |  | 0.7480 | 0.6893 | 0.4619
O=C1NC(=O)C(c2cn(-c3cccnc3)c3ccccc23)=C1c1cn(CCO)c2ccccc12 [Compound 206, 3-[1-(2-Hydroxyethyl)-1H-indol-3-yl]-4-(1-pyridin-3-yl-1H-indol-3-yl)-1H-pyrrole-2,5-dione] | 0.845 | 0.877 | 223646667 |  | 309900000 |  | 110 | 0.861 | 1.74 | 1.66 | 0.7517 | 0.7326 | 0.1793
Cn1ccc(C2=C(c3cn(CCCO)c4ncccc34)C(=O)NC2=O)n1 [Compound 209] | 0.971 | 0.913 | 80676667 |  | 143916667 |  | 121 | 0.942 | 0.628 | 0.772 |  |  | 
COc1ccccc1C1=C(c2cn(-c3cccnc3)c3ccccc23)C(=O)NC1=O [Compound 216, 3-[2-(Methyloxy)phenyl]-4-(1-pyridin-3-yl-1H-indol-3-yl)-1H-pyrrole-2,5-dione] | 0.768 | 0.724 | 252690000 |  | 306520000 |  | 92.2 | 0.746 |  |  |  |  | 
Cc1c[nH]c(-c2cnc(NCCNc3ccc(C#N)cn3)nc2-c2ccc(Cl)cc2Cl)n1 [Compound 221, 6-[(2-{[4-(2,4-Dichlorophenyl)-5-(4-methyl-1H-imidazol-2-yl)pyrimidin-2-yl]amino}ethyl)amino]pyridine-3-carbonitrile] |  |  | 1089750000 |  | 1281000000 |  | 98.8 |  | 1.12 | 1.16 | 0.9324 | 0.7191 | 0.6128
CC(C)(O)CCn1nc(C2=C(c3cn(-c4cccnc4)c4ccccc34)C(=O)NC2=O)c2ccccc21 [Compound 223, 3-[1-(3-Hydroxy-3-methylbutyl)-1H-indazol-3-yl]-4-(1-pyridin-3-yl-1H-indol-3-yl)-1H-pyrrole-2,5-dione] | 0.770 | 0.786 | 1013360000 |  | 540725000 |  | 97.8 | 0.778 | 1.04 |  | 0.8427 | 0.8021 | 0.7287
O=C1NC(=O)C(c2nn(CCO)c3ccccc23)=C1c1cn(-c2cncnc2)c2ccccc12 [Compound 226, 3-[1-(2-Hydroxyethyl)-1H-indazol-3-yl]-4-(1-pyrimidin-5-yl-1H-indol-3-yl)-1H-pyrrole-2,5-dione] | 0.683 | 0.688 | 572520000 |  | 329425000 |  | 83.1 | 0.686 | 0.589 |  | 0.7474 | 0.7506 | 0.6945
O=C1NC(=O)C(c2cn(-c3cncnc3)c3ccccc23)=C1c1cn(CCO)c2ccccc12 [Compound 230, 3-[1-(2-Hydroxyethyl)-1H-indol-3-yl]-4-(1-pyrimidin-5-yl-1H-indol-3-yl)-1H-pyrrole-2,5-dione] | 0.680 | 0.663 | 1104750000 |  | 1052345000 |  | 81.8 | 0.671 | 1.14 | 0.95 |  |  | 
Cn1cc(C2=C(c3nn(CCCn4ccnc4)c4ccccc34)C(=O)NC2=O)c2cc(Cl)ccc21 [Compound 231, 3-(5-Chloro-1-methyl-1H-indol-3-yl)-4-{1-[3-(1H-imidazol-1-yl)propyl]-1H-indazol-3-yl}-1H-pyrrole-2,5-dione] | 0.640 | 0.636 | 789085000 |  | 547055000 |  | 76.7 | 0.638 | 0.811 |  |  |  | 
